Literature values as cited in patent publication US7144595B2, “Prepared foods containing triglyceride-recrystallized non-esterified phytosterols” (Brandeis University, priority 2001, dated 2006).

Test system: humans

SMILES	lowering of serum cholesterol (12–18 g per day in divided doses, males with atherosclerosis (Faquhar 1956))	decrease of plasma cholesterol level (9–18 grams per day, coarse powdered form)
CC[C@H](CC[C@@H](C)[C@H]1CC[C@H]2[C@@H]3CC=C4C[C@@H](O)CC[C@]4(C)[C@H]3CC[C@]12C)C(C)C [beta sitosterol]	15–20%	
CC[C@H](CC[C@@H](C)[C@H]1CC[C@H]2[C@@H]3CC=C4C[C@@H](O)CC[C@]4(C)[C@H]3CC[C@]12C)C(C)C [sitosterol]		approximately 15%
